Laboratory results as given in ChEMBL document CHEMBL1201862, “PubChem BioAssay data set” (2004).
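In this assay, cells in 96-well plates receive the compound at five concentrations for 48 hours. Endpoints are linearly interpolated between the surrounding concentrations. Here, GI50 denotes the concentration required for 50% inhibition of growth.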 Activity calls are given as the source filed them. No stated cut-off is given here; in the data, active = GI50 up to about 1.1 µM and inactive = higher.

How the values were obtained:
Assay in all cases: NCI anticancer screen, dose series, 48 h
SF-295 = test system: SF-295
SNB-75 = test system: SNB-75
OVCAR-3 = test system: OVCAR-3
T47D = test system: T47D
SN12C = test system: SN12C
OVCAR-5 = test system: OVCAR-5
SK-OV-3 = test system: SK-OV-3
Malme-3M = test system: Malme-3M
K562 = test system: K562
NCI-H23 = test system: NCI-H23
MDA-MB-435 = test system: MDA-MB-435
LOX IMVI = test system: LOX IMVI
UACC-257 = test system: UACC-257
UACC-62 = test system: UACC-62
BT-549 = test system: BT-549
CAKI-1 = test system: CAKI-1
A549 = test system: A549
HCT-15 = test system: HCT-15
HL-60 = test system: HL-60
NCI-H460 = test system: NCI-H460
OVCAR-8 = test system: OVCAR-8
SK-MEL-2 = test system: SK-MEL-2
MDA-MB-231 = test system: MDA-MB-231
TK-10 = test system: TK-10
ACHN = test system: ACHN
Hs-578T = test system: Hs-578T
HCC 2998 = test system: HCC 2998
CCRF-CEM = test system: CCRF-CEM
SK-MEL-28 = test system: SK-MEL-28
SW-620 = test system: SW-620
M14 = test system: M14
SK-MEL-5 = test system: SK-MEL-5
RXF 393 = test system: RXF 393
NCI-H522 = test system: NCI-H522
HOP-62 = test system: HOP-62
UO-31 = test system: UO-31
EKVX = test system: EKVX
MCF7 = test system: MCF7
HCT-116 = test system: HCT-116
KM12 = test system: KM12
786-0 = test system: 786-0
SF-539 = test system: SF-539
NCI-H226 = test system: NCI-H226
RPMI-8226 = test system: RPMI-8226
MDA-N = test system: MDA-N
OVCAR-4 = test system: OVCAR-4
SF-268 = test system: SF-268
DU-145 = test system: DU-145
MOLT-4 = test system: MOLT-4
A498 = test system: A498
IGROV-1 = test system: IGROV-1
NCI/ADR-RES = test system: NCI/ADR-RES
PC-3 = test system: PC-3
COLO 205 = test system: COLO 205
U-251 = test system: U-251
HT-29 = test system: HT-29
SNB-19 = test system: SNB-19

CNC(=S)c1nnsc1N
GI50 (SF-295): > 100 µM (inactive) | GI50 (SNB-75): > 100 µM (inactive) | GI50 (OVCAR-3): 0.479 µM (active) | GI50 (T47D): 2.03 µM (inactive) | GI50 (SN12C): > 100 µM (inactive) | GI50 (OVCAR-5): > 100 µM (inactive) | GI50 (SK-OV-3): > 100 µM (inactive) | GI50 (Malme-3M): > 100 µM (inactive) | GI50 (K562): 21.7 µM (inactive) | GI50 (NCI-H23): > 100 µM (inactive) | GI50 (MDA-MB-435): > 100 µM (inactive) | GI50 (LOX IMVI): > 100 µM (inactive) | GI50 (UACC-257): > 100 µM (inactive) | GI50 (UACC-62): > 100 µM (inactive) | GI50 (BT-549): > 100 µM (inactive) | GI50 (CAKI-1): > 100 µM (inactive) | GI50 (A549): > 100 µM (inactive) | GI50 (HCT-15): > 100 µM | GI50 (HL-60): 0.0115 µM (active) | GI50 (NCI-H460): 0.71 µM (active) | GI50 (OVCAR-8): > 100 µM (inactive) | GI50 (SK-MEL-2): > 100 µM (inactive) | GI50 (MDA-MB-231): > 100 µM (inactive) | GI50 (TK-10): > 100 µM (inactive) | GI50 (ACHN): > 100 µM (inactive) | GI50 (Hs-578T): > 100 µM (inactive) | GI50 (HCC 2998): 29.5 µM (inactive) | GI50 (CCRF-CEM): > 100 µM (inactive) | GI50 (SK-MEL-28): > 100 µM (inactive) | GI50 (SW-620): > 100 µM (inactive) | GI50 (M14): > 100 µM (inactive) | GI50 (SK-MEL-5): 14 µM (inactive) | GI50 (RXF 393): > 100 µM (inactive) | GI50 (NCI-H522): 9.14 µM (inactive) | GI50 (HOP-62): > 100 µM (inactive) | GI50 (UO-31): > 100 µM (inactive) | GI50 (EKVX): > 100 µM (inactive) | GI50 (MCF7): 0.918 µM (active) | GI50 (HCT-116): 66.4 µM (inactive) | GI50 (KM12): 11.6 µM (inactive) | GI50 (786-0): > 100 µM (inactive) | GI50 (SF-539): > 100 µM (inactive) | GI50 (NCI-H226): > 100 µM (inactive) | GI50 (RPMI-8226): 0.9 µM (active) | GI50 (MDA-N): > 100 µM (inactive) | GI50 (OVCAR-4): > 100 µM (inactive) | GI50 (SF-268): > 100 µM (inactive) | GI50 (DU-145): > 100 µM (inactive) | GI50 (MOLT-4): > 100 µM (inactive) | GI50 (A498): 87.3 µM (inactive) | GI50 (IGROV-1): 2.99 µM (inactive) | GI50 (NCI/ADR-RES): > 100 µM (inactive) | GI50 (PC-3): 9.93 µM (inactive) | GI50 (COLO 205): 0.043 µM (active) | GI50 (U-251): > 100 µM (inactive)

O=C(c1ccc(Cl)cc1)N(C(=O)N1CCCCC1)c1ccccc1
GI50 (OVCAR-3): > 100 µM (inactive) | GI50 (T47D): 17.6 µM (inactive) | GI50 (SN12C): > 100 µM (inactive) | GI50 (OVCAR-5): > 100 µM (inactive) | GI50 (SK-OV-3): 33.9 µM (inactive) | GI50 (Malme-3M): 37.3 µM (inactive) | GI50 (K562): 31 µM (inactive) | GI50 (NCI-H23): 85.5 µM (inactive) | GI50 (MDA-MB-435): > 100 µM (inactive) | GI50 (LOX IMVI): 68.1 µM (inactive) | GI50 (UACC-62): > 100 µM (inactive) | GI50 (BT-549): 48.3 µM (inactive) | GI50 (CAKI-1): > 100 µM (inactive) | GI50 (HCT-15): 79.4 µM | GI50 (HL-60): 20.1 µM (inactive) | GI50 (OVCAR-8): > 100 µM (inactive) | GI50 (SK-MEL-2): 25.2 µM (inactive) | GI50 (MDA-MB-231): 42.5 µM (inactive) | GI50 (ACHN): > 100 µM (inactive) | GI50 (Hs-578T): 41.1 µM (inactive) | GI50 (CCRF-CEM): 23.7 µM (inactive) | GI50 (SK-MEL-28): > 100 µM (inactive) | GI50 (SW-620): > 100 µM (inactive) | GI50 (M14): > 100 µM (inactive) | GI50 (SK-MEL-5): 34.2 µM (inactive) | GI50 (UO-31): 34.7 µM (inactive) | GI50 (EKVX): 33.7 µM (inactive) | GI50 (MCF7): 65.5 µM (inactive) | GI50 (HCT-116): > 100 µM (inactive) | GI50 (KM12): > 100 µM (inactive) | GI50 (786-0): > 100 µM (inactive) | GI50 (SF-539): > 100 µM (inactive) | GI50 (NCI-H226): > 100 µM (inactive) | GI50 (RPMI-8226): 22.6 µM (inactive) | GI50 (HT-29): > 100 µM (inactive) | GI50 (MDA-N): > 100 µM (inactive) | GI50 (SF-268): > 100 µM (inactive) | GI50 (DU-145): > 100 µM (inactive) | GI50 (MOLT-4): 18.9 µM (inactive) | GI50 (A498): > 100 µM (inactive) | GI50 (IGROV-1): 56.4 µM (inactive) | GI50 (SNB-19): > 100 µM (inactive) | GI50 (NCI/ADR-RES): 66.5 µM (inactive) | GI50 (PC-3): 17.7 µM (inactive) | GI50 (COLO 205): 85.9 µM (inactive) | GI50 (U-251): > 100 µM (inactive)

NC(=O)N/N=C(\Cc1nc2ccc(Cl)cc2nc1O)C(=O)Nc1ccc(Cl)cc1Cl
GI50 (SF-295): > 100 µM (inactive) | GI50 (SNB-75): > 100 µM (inactive) | GI50 (OVCAR-3): > 100 µM (inactive) | GI50 (T47D): > 100 µM (inactive) | GI50 (SN12C): > 100 µM (inactive) | GI50 (OVCAR-5): > 100 µM (inactive) | GI50 (SK-OV-3): > 100 µM (inactive) | GI50 (Malme-3M): > 100 µM (inactive) | GI50 (K562): > 100 µM (inactive) | GI50 (NCI-H23): > 100 µM (inactive) | GI50 (MDA-MB-435): > 100 µM (inactive) | GI50 (LOX IMVI): > 100 µM (inactive) | GI50 (UACC-257): > 100 µM (inactive) | GI50 (UACC-62): > 100 µM (inactive) | GI50 (BT-549): > 100 µM (inactive) | GI50 (CAKI-1): > 100 µM (inactive) | GI50 (A549): > 100 µM (inactive) | GI50 (HCT-15): > 100 µM | GI50 (HL-60): > 100 µM (inactive) | GI50 (NCI-H460): > 100 µM (inactive) | GI50 (OVCAR-8): > 100 µM (inactive) | GI50 (SK-MEL-2): > 100 µM (inactive) | GI50 (MDA-MB-231): > 100 µM (inactive) | GI50 (TK-10): > 100 µM (inactive) | GI50 (ACHN): > 100 µM (inactive) | GI50 (Hs-578T): 57.4 µM (inactive) | GI50 (HCC 2998): > 100 µM (inactive) | GI50 (CCRF-CEM): > 100 µM (inactive) | GI50 (SK-MEL-28): > 100 µM (inactive) | GI50 (SW-620): > 100 µM (inactive) | GI50 (M14): > 100 µM (inactive) | GI50 (SK-MEL-5): > 100 µM (inactive) | GI50 (NCI-H522): > 100 µM (inactive) | GI50 (UO-31): > 100 µM (inactive) | GI50 (EKVX): 10.6 µM (inactive) | GI50 (MCF7): > 100 µM (inactive) | GI50 (HCT-116): > 100 µM (inactive) | GI50 (KM12): > 100 µM (inactive) | GI50 (786-0): > 100 µM (inactive) | GI50 (SF-539): > 100 µM (inactive) | GI50 (NCI-H226): 87.1 µM (inactive) | GI50 (RPMI-8226): > 100 µM (inactive) | GI50 (HT-29): > 100 µM (inactive) | GI50 (MDA-N): > 100 µM (inactive) | GI50 (OVCAR-4): > 100 µM (inactive) | GI50 (SF-268): > 100 µM (inactive) | GI50 (DU-145): > 100 µM (inactive) | GI50 (MOLT-4): > 100 µM (inactive) | GI50 (A498): > 100 µM (inactive) | GI50 (IGROV-1): 81.5 µM (inactive) | GI50 (SNB-19): > 100 µM (inactive) | GI50 (NCI/ADR-RES): > 100 µM (inactive) | GI50 (PC-3): > 100 µM (inactive) | GI50 (COLO 205): > 100 µM (inactive) | GI50 (U-251): > 100 µM (inactive)
